Measured values from publication PMC4168161, “A novel approach for the discovery of chemically diverse anti-malarial compounds targeting the Plasmodium falciparum Coenzyme A synthesis pathway” (Malaria Journal, 2014).

Legend:
[1] = system: P. falciparum CoA synthesis pathway; assay: Coenzyme A chemical rescue assay on P. falciparum; type: cell-based, Plasmodium falciparum; conditions: for IC50 shift upon CoA supplementation: eight-point dose response, fixed CoA (0.8-2 mM), n = 2
Description: The well-established P. falciparum imaging assay was modified to allow assessment of chemical rescue with CoA. In brief, sorbitol (5% w/v) synchronization was performed twice, approximately 8 hr apart, on each synchronization day for two consecutive ring cycles, i.e., on day 1 and 3 of assay preparation. On day 2 the culture was split to approximately 2% trophozoite parasitaemia. On day 4 the culture was split to 1-1.5% trophozoite parasitaemia, which yielded approximately 8% ring parasitaemia after 48 hr (on day 5, i.e., the day of the assay set-up). Compound stocks (10 mM in 100% DMSO) were diluted 1:25 in sterile water, less than 24 hr prior to use. An additional 1:10 dilution was performed, resulting in a 1:250 overall compound dilution and a final DMSO concentration of 0.4%. For initial screening, compounds were tested at a final 2 μM concentration. […] The known P. falciparum CoA synthesis inhibitor, panthenol, was prepared as a 100 mM solution in 4% DMSO. The final concentration of the dose response curve of panthenol started at 10 mM and was serially diluted down to 100 nM. CoA was dissolved in water. […] Five μl of the 1:25 diluted test compound or control solutions were added to 384-well CellCarrier imaging plates (PerkinElmer). For the chemical rescue, 5 μl of CoA solution were added to ‘rescue’ wells and 5 μl water to all control and reference wells, respectively. Parasite culture was added to a final concentration of 1% parasitaemia (% P) and 0.3% haematocrit (% H). Plates were incubated for 72 hr at 37°C, 5% CO2 and 95% humidity. On day 8 the permeabilization and nuclear staining buffer was prepared in PBS containing 10 μg/ml saponin, 0.01% triton X, 5 mM EDTA (all: Sigma) and 0.5 μg/ml 4′,6-diamidino-2-phenylindole (DAPI; Life Technologies). The plates were left for at least 4 hr (typically overnight), before confocal imaging on an Opera™ High Content Screening Platform (PerkinElmer) at 405 nm excitation with a 20x water objective. Automated primary image analysis was performed concurrent with the imaging process, utilizing an Acapella® software (PerkinElmer) script to determine the number of parasites based on object size and fluorescence intensity. Determination of the % growth compared to controls (2 μM artemisinin as positive and 0.4% DMSO as negative control) was performed in Microsoft® Excel 2010. Statistical analysis including IC50 determination and graphical output was performed in GraphPad Prism® 5 using non-linear regression variable slope curve fitting. Cell-based high throughput screening (HTS) entails the distinct benefit that positive hits have already proven effective against the live parasite within its natural host erythrocyte environment. Modifications of an image-based assay were undertaken to identify compounds that interfere with the P. falciparum CoA pathway. The modification involved a chemical rescue approach adapted from a similar method used to investigate apicoplast function. The principle idea of the chemical rescue approach is that supplementation of an unbranched pathway’s end product – in this case CoA - should abrogate, or at least alleviate, negative growth effects of compounds inhibiting any step in the pathway. […] To identify new potential CoA synthesis inhibitors, the CoA chemical rescue approach was used to screen 144 compounds with known antiplasmodial activity identified by HTS in the Avery laboratory, in addition to the MMV malaria box. […] Compounds which rescued growth to at least 50% of control values and two-fold difference compared to treatment alone, were regarded as partial rescue hits.

HEK293 cells = assay: CoA chemical rescue on HEK293 cells; type: cell-based, human; conditions: dose response with and without CoA, n = 2
Description: To assess cytotoxicity of compounds in dose response, a resazurin-based assay was utilized to determine cell viability. In brief, HEK293 cells were grown in DMEM medium (Life Technologies) containing 10% foetal calf serum (FCS; Gibco). Cells were trypsinized, counted and seeded at 2,000 cells per well in 45 μl media into TC-treated 384-well plates (Falcon) and left to adhere overnight at 37°C, 5% CO2 and 95% humidity.
Plates were incubated for 72 hr at 37°C, 5% CO2 and 95% humidity, then the media was removed and replaced by 35 μl of 44 μM resazurin in DMEM without FCS. The plates were incubated for another 4-6 hr at 37°C, 5% CO2 and 95% humidity before reading on an EnVision® Plate Reader (PerkinElmer) using fluorescence excitation/emission settings of 530 nm/595 nm. Determination of the% growth compared to controls (40 μM puromycin as positive and 0.4% DMSO as negative control) was performed in Microsoft® Excel 2010. Statistical analysis including IC50 determination and graphical output was performed in GraphPad Prism® 5 using nonlinear regression variable slope curve fitting.

[2] = compound at ~ IC80, with CoA supplementation
[3] = at 2 μM compound, with CoA supplementation

Row | Compound | CoA rescue (relative parasite number, % of untreated control) [1, 2] [% rescue at ~ IC80] | IC50 shift upon CoA supplementation [1] | CoA rescue (relative parasite number, % of untreated control) [1, 3] [% rescue at 2 μM] | cytotoxic effect on HEK293 cells upon CoA addition (HEK293 cells) | CoA rescue hit confirmation ([1]; retest)
1 | Cc1csc(Sc2ncnc3sccc23)n1 [Amb180780] | 80 | greater than six times |  |  | 
2 | CC(=O)c1ccc2c3c(onc13)-c1ccccc1C2=O [Amb3377585] | 50 | greater than six times |  |  | 
3 | CCOc1ccc(Nc2c3ccccc3nc3ccccc23)cc1.Cl [MMV000304/Amb636705] |  | 1.5 times | 80 | reduced upon CoA addition | 
4 | CCc1ccc(Nc2cc(C)c3ccc(O)cc3n2)cc1.Cl [MMV000570/C614-0191] | 80 | more than doubled |  |  | 
5 | COc1ccc2c(=O)cc(C(Cl)(Cl)Cl)oc2c1 [MMV665820/5534045] |  | greater than six times | 80 |  | confirmed as a hit
6 | CC(C)=NOC(=O)c1c(C)noc1-c1snnc1C [SPB03400] | 50 | 1.5 times |  |  | 
7 | CC1=CC(=O)C(C(C)C)=C/C1=N/OS(=O)(=O)c1ccccc1 [STK 740987] |  | greater than six times | 50 |  | 
